How the values were obtained:
μ-opioid receptor [1] = biological target: T1, μ-opioid receptor (Homo sapiens, UniProt P35372); test: biochemical; parameters: purchased Perkin Elmer, Shelton, Conn; host or cells: HEK-293 or CHO; details: HEK-293 or CHO cells; for EC50: read-out: GTPγS μ EC50; for Emax: relative to DAMGO, read-out: GTPγS μ Emax
κ-opioid receptor [2] = biological target: T2, κ-opioid receptor (Homo sapiens, UniProt P41145); test: κ-opioid receptor radioligand binding assay ([3H]-U69,593); parameters: expressed in transfected cells; host or cells: HEK-293; details: HEK-293 or CHO cells; read-out: Ki (nM) Opioid Receptor κ
T2 sequence (P41145 whole entry): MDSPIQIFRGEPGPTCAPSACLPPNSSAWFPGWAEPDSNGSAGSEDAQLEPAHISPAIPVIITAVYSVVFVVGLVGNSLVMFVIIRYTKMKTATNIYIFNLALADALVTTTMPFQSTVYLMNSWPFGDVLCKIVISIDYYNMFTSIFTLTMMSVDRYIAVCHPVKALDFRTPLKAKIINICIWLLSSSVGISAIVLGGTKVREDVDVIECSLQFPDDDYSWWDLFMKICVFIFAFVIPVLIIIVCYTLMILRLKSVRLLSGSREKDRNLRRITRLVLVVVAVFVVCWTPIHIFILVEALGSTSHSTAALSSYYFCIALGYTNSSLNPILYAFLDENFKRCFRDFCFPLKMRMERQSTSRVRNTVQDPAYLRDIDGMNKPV
Description: κ-opioid Receptor Binding Assay Procedures: Membranes from recombinant HEK-293 cells expressing the human κ opioid receptor (κ) (cloned in house) were prepared by lysing cells in ice cold hypotonic buffer (2.5 mM MgCl2, 50 mM HEPES, pH 7.4) (10 mL/10 cm dish) followed by homogenization with a tissue grinder/Teflon pestle. Membranes were collected by centrifugation at 30,000×g for 15 min at 4° C. and pellets were resuspended in hypotonic buffer to a final concentration of 1-3 mg/mL. Protein concentrations were determined using the BioRad protein assay reagent with bovine serum albumen as standard. Aliquots of κ receptor membranes were stored at −80° C.
Radioligand dose displacement assays used 0.4 nM [^3H]-U69,593 (GE Healthcare, Piscataway, N.J.; 40 Ci/mmole) with 15 μg membrane protein (recombinant κ opioid receptor expressed in HEK 293 cells; in-house prep) in a final volume of 200 μl binding buffer (5% DMSO, 50 mM Trizma base, pH 7.4). Non-specific binding was determined in the presence of 10 μM unlabeled naloxone or U69,593. All reactions were performed in 96-well polypropylene plates for 1 hr at a temperature of about 25° C.

κ-opioid receptor [3] = biological target: T2, κ-opioid receptor; test: κ-opioid receptor β-Arr2 activity response, U2OS cells; type: cell-based; parameters: expressed in transfected cells; host or cells: U-2 OS; details: U2OS cells; for EC50: read-out: β-Arr2 κ EC50
κ-opioid receptor [4] = biological target: T2, κ-opioid receptor; test: κ-opioid receptor [35S]GTPγS functional assay, HEK-293 or CHO cells; type: biochemical; parameters: expressed in transfected cells; host or cells: HEK-293; details: HEK-293 or CHO cells; for EC50: read-out: GTPγS κ EC50; for Emax: relative to U69,593
Description: (§1) Plates were incubated for 30 min at a temperature of about 25° C. with shaking.

μ-opioid receptor [5] = biological target: T1, μ-opioid receptor; test: μ-opioid receptor GTPγS functional assay, U2OS cells; details: for Emax: read-out: GTPγS μ Emax
μ-opioid receptor [6] = biological target: T1, μ-opioid receptor; test: μ-opioid receptor radioligand binding assay ([3H]-diprenorphine); parameters: purchased Perkin Elmer, Shelton, Conn; host or cells: HEK-293 or CHO; details: HEK-293 or CHO cells; read-out: Ki (nM) Opioid Receptor μ
Description: μ-opioid Receptor Binding Assay Procedures: Radioligand dose-displacement binding assays for μ-opioid receptors used 0.3 nM [^3H]-diprenorphine (Perkin Elmer, Shelton, Conn.), with […] membrane protein/well in a final volume of 500 μl binding buffer (10 mM MgCl2, 1 mM EDTA, 5% DMSO, 50 mM HEPES, pH 7.4). Reactions were carried out in the absence or presence of increasing concentrations of unlabeled naloxone. All reactions were conducted in 96-deep well polypropylene plates for 2 hr at room temperature. […] The data were analyzed using the one-site competition curve fitting functions in GraphPad PRISM™ v. 3.0 or higher (San Diego, Calif.), or an in-house function for one-site competition curve-fitting.

κ-opioid receptor [7] = biological target: T2, κ-opioid receptor; test: κ-opioid receptor GTPγS functional assay, U2OS cells; type: biochemical; parameters: expressed in transfected cells; host or cells: U-2 OS; details: U2OS cells; for EC50: read-out: GTPγS κ EC50
Description: as §1

μ-opioid receptor [8] = biological target: T1, μ-opioid receptor; test: cell-based; parameters: purchased Perkin Elmer, Shelton, Conn; details: U2OS cells; for Emax: read-out: β-Arr2 μ Emax

T1 sequence (P35372 whole entry, species assumed): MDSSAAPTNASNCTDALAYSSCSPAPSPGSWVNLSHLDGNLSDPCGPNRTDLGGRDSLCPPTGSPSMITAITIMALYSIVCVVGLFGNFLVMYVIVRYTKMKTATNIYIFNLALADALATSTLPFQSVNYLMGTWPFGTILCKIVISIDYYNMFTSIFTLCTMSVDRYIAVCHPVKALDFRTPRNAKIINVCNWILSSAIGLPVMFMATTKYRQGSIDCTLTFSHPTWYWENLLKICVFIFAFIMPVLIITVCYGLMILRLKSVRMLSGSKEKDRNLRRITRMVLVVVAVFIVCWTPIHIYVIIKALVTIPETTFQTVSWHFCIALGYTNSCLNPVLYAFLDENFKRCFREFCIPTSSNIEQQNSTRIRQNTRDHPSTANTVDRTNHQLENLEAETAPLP

With `COc1ccc2c(c1)[C@]1(CCOCc3ccccc3)CCN(CC3CC3)[C@H](C2)[C@@H]1C` [Compound 45, (2R,6S,11R)-6-(2-(benzyloxy)ethyl)-3-(cyclopropylmethyl)-8-methoxy-11-methyl-1,2,3,4,5,6-hexahydro-2,6-methanobenzo[d]azocine] the EC50 (μ-opioid receptor [1]) was 267 ± 20.1 nM, the Emax (μ-opioid receptor [1]) was 16.3 ± 0.88% and the Ki (κ-opioid receptor [2]) was 0.16 ± 0.03 nM. It also gave an Emax (κ-opioid receptor [3]) of 84 ± 2.08%, an EC50 (κ-opioid receptor [3]) of 26.7 ± 8.55 nM and an EC50 (κ-opioid receptor [4]) of 16.3 ± 0.74 nM. The Emax (κ-opioid receptor [4]) was 104 ± 5.03%, the EC50 (μ-opioid receptor [5]) was 38 ± 2.09 nM and the Emax (μ-opioid receptor [5]) was 103 ± 6.47%. The Ki (μ-opioid receptor [6]) was 543 ± 116 nM, the Emax (κ-opioid receptor [7]) was 96.3 ± 5.17% and the EC50 (κ-opioid receptor [7]) was 0.95 ± 0.14 nM. For the same compound, the Emax (μ-opioid receptor [8]) was 1.33 ± 0.33%.

Work on `C[C@H]1[C@H]2Cc3ccc(O)cc3[C@]1(CCN1CCS(=O)(=O)CC1)CCN2C` [Compound 10, 4-(2-((2R,6R,11R)-8-hydroxy-3,11-dimethyl-2,3,4,5-tetrahydro-2,6-methanobenzo[d]azocin-6(1H)-yl)-ethyl)thiomorpholine 1,1-dioxide] yielded an EC50 (μ-opioid receptor [1]) of 133 ± 16.1 nM, an Emax (μ-opioid receptor [1]) of 51 ± 1.08% and a Ki (κ-opioid receptor [2]) of 77 ± 2.02 nM. For the same compound, the Emax (κ-opioid receptor [3]) was 17.2 ± 0.97%, the EC50 (κ-opioid receptor [3]) was 4660 ± 1720 nM and the EC50 (κ-opioid receptor [4]) was 516 ± 33.9 nM. For the same compound, the Emax (κ-opioid receptor [4]) was 26.6 ± 1.52%, the EC50 (μ-opioid receptor [8]; read-out: β-Arr2 μ EC50) was 129 ± 34.4 nM and the Emax (μ-opioid receptor [8]) was 2.83 ± 0.27%.

In the case of `COc1ccc2c(c1)[C@]1(CCN[C@@H](C)C(=O)O)CCN(CC3CC3)[C@H](C2)[C@@H]1C` [Compound 40, (2-((2R,6R,11R)-3-(cyclopropyl-methyl)-8-methoxy-11-methyl-2,3,4,5-tetrahydro-2,6-methanobenzo[d]azocin-6(1H)-yl)ethyl)-L-ananine], the EC50 (μ-opioid receptor [1]) is reported as 1660 ± 245 nM, the Emax (μ-opioid receptor [1]) is reported as 77.7 ± 6.12% and the Ki (κ-opioid receptor [2]) is reported as 248 ± 95.7 nM. For the same compound, the EC50 (κ-opioid receptor [4]) was 7890 ± 1340 nM, the Emax (κ-opioid receptor [4]) was 86.3 ± 7.54% and the Ki (μ-opioid receptor [6]) was 871 ± 211 nM. For the same compound, the Emax (κ-opioid receptor [7]) was 115 ± 1.73% and the EC50 (κ-opioid receptor [7]) was 542 ± 13.1 nM.

For `COC(=O)[C@@H](NCC[C@@]12CCN(CC3CC3)[C@@H](Cc3ccc(OC)cc31)[C@H]2C)C(C)C` [Compound 37, methyl (2-((2S,6S,11S)-3-(cyclopropyl-methyl)-8-methoxy-11-methyl-2,3,4,5-tetrahydro-2,6-methanobenzo[d]azocin-6(1H)-yl)ethyl)-L-valinate], the EC50 (μ-opioid receptor [1]) was 9390 ± 820 nM, the Emax (μ-opioid receptor [1]) was 19.3 ± 2.33% and the Ki (κ-opioid receptor [2]) was 8990 ± 2060 nM. The Ki (μ-opioid receptor [6]) was 13900 nM.

`COc1ccc2c(c1)[C@@]1(CCOCc3ccccc3)CCN(CC3CC3)[C@@H](C2)[C@H]1C` [Compound 44, (2S,6R,11S)-6-(2-(benzyloxy)ethyl)-3-(cyclopropylmethyl)-8-methoxy-11-methyl-1,2,3,4,5,6-hexahydro-2,6-methanobenzo[d]azocine] gave a Ki (κ-opioid receptor [2]) of 118 ± 8.52 nM, an Emax (κ-opioid receptor [3]) of 102 ± 11.6% and an EC50 (κ-opioid receptor [3]) of 10300 ± 1050 nM. It also gave an EC50 (κ-opioid receptor [4]) of 854 ± 240 nM, an Emax (κ-opioid receptor [4]) of 32 ± 0.58% and a Ki (μ-opioid receptor [6]) of 1840 ± 222 nM. The Emax (κ-opioid receptor [7]) was 79.3 ± 3.38% and the EC50 (κ-opioid receptor [7]) was 327 ± 50.5 nM.

Compound `COc1ccc2c(c1)[C@]1(CCNCC(=O)O)CCN(CC3CC3)[C@H](C2)[C@@H]1C` [Compound 36, (2-((2R,6R,11R)-3-(cyclopropyl-methyl)-8-methoxy-11-methyl-2,3,4,5-tetrahydro-2,6-methanobenzo[d]azocin-6(1H)-yl)ethyl)glycine] has an EC50 (μ-opioid receptor [1]) of 798 ± 24.1 nM, an Emax (μ-opioid receptor [1]) of 39 ± 1.53% and a Ki (κ-opioid receptor [2]) of 133 ± 22.9 nM. It also gave an EC50 (κ-opioid receptor [4]) of 1980 ± 216 nM, an Emax (κ-opioid receptor [4]) of 69 ± 6.24% and a Ki (μ-opioid receptor [6]) of 1020 ± 51.3 nM.

Compound `COc1ccc2c(c1)[C@]1(CCNC(=O)CN)CCN(CC3CC3)[C@H](C2)[C@@H]1C` [Compound 33, 2-amino-N-(2-((2R,6R,11R)-3-(cyclopropylmethyl)-8-methoxy-11-methyl-2,3,4,5-tetrahydro-2,6-methanobenzo[d]azocin-6(1H)-yl)ethyl)acetamide] has an EC50 (μ-opioid receptor [1]) of 356 ± 111 nM, an Emax (μ-opioid receptor [1]) of 92.7 ± 6.57% and a Ki (κ-opioid receptor [2]) of 1.04 ± 0.071 nM. The Emax (κ-opioid receptor [3]) was 42 ± 4%, the EC50 (κ-opioid receptor [3]) was 12.8 ± 4.1 nM and the EC50 (κ-opioid receptor [4]) was 61.2 ± 20.1 nM. It also gave an Emax (κ-opioid receptor [4]) of 113 ± 1%, an EC50 (μ-opioid receptor [5]) of 1170 ± 247 nM and an Emax (μ-opioid receptor [5]) of 56 ± 3.06%. It also gave a Ki (μ-opioid receptor [6]) of 936 ± 189 nM, an Emax (κ-opioid receptor [7]) of 108 ± 3.38% and an EC50 (κ-opioid receptor [7]) of 4.93 ± 1.06 nM.

Source: US10130615B2, “Benzomorphan analogs and the use thereof” (priority 2014, dated 2018)
